The results in this text go back to patent US11976311B2, “Method of adjusting the pH of a pretreatment solution using carbon dioxide useful for integrating saccharification and fermentation of a biomass” (National Technology & Engineering Solutions of Sandia, LLC, priority 2014, dated 2024).

For data set [1], the system named is commercial enzyme mixtures (CTec2+HTec2). The data set is described as follows: Effect of acid-induced pH adjustment of 5% [Ch][Lys] solution on enzymatic hydrolysis of MCC. It is filed as biochemical. The settings on record: for relative activities of enzymes on MCC: 5% [Ch][Lys] solution, pH adjusted with the named acid. As to the method: To enable a one-pot process, the pH mis-match must be adjusted to lower the pH of pretreatment slurry to a range suitable to enzymes and microbes. We tested a series of mineral and organic acids such as hydrochloric acid, phosphoric acid, sulfuric acid, acetic acid, citric acid, lactic acid, formic acid for the pH adjustment of 5% [Ch][Lys] solution.
(§1) In another set of pretreatment, switchgrass (100 mg, dry weight) was mixed with 5, 10, and 20% [Ch][Lys]-water solutions at a 10% biomass loading in a 15 ml capped glass pressure tube and pretreated at 140° C. for 1 h. After pretreatment, CTec2+HTec2 (9:1 v/v) mixture was directly added to the pretreatment slurry at 10 mg EP per g starting biomass for saccharification at the same conditions as stated above. In addition, microcrystalline cellulose (MCC) was hydrolyzed by 30 mg/g starting biomass for CTec2+HTec2, spiked with 0-30% IL.

The nature of data set [2]: pH of [Ch][Lys]/water systems and CO2-based pH adjustment. The format is physicochemical. The source says:
With the increasing of CO2 pressure from 0 to 0.1 MPa, pH values of all [Ch][Lys]-water solutions decrease sharply from pH of […] to pH of 7-9. Further increasing CO2 pressure led to further pH drop. For 20 wt % [Ch][Lys]-water solution, a pH value of 7.2 was obtained at a CO2 pressure of around 2 MPa. However, only 0.7 MPa CO2 pressure is needed to drop the pH of 10 wt % [Ch][Lys]-water solution to 7.1. While, only 0.1 MPa CO2 pressure is needed to low the pH of the 5 wt % [Ch][Lys]-water solution to around 6.9, similar to or lower than the typical pressure deployed for carbonating a can of Soda. The process is reversible by increasing temperature or bubbling N2, driving out the CO2 and restoring the pH to its original value. In addition, a small fraction of alcohol (e.g. ethylene glycol) could be introduced for further enhancing CO2 absorption efficiency if necessary.^20
All the CO2 absorption experiments were carried out at room temperature in a 25 mL stainless steel Parr reactor (Parr instrument Co., USA) equipped with a magnetic stirrer plate and CO2 cylinder (>99.9% CO2 purity). In a typical procedure, 10 mL a certain concentration of [Ch][Lys] aqueous system was added into the Parr. After being sealed, the Parr was stirred at room temperature, and the absorption pressure was held constant by a backpressure valve. After the absorption was completed, the Parr was cooled to ambient temperature, and the remaining CO2 was removed slowly. Then, the corresponding pH value of the mixture was analyzed by Orion™ 3-Star Benchtop pH Meter. To elucidate the interaction between CO2 with side amine and terminal amine groups of [Ch][Lys] in H2O, we conducted ^13C nuclear magnetic resonance (NMR) analysis of [Ch][Lys] before and after CO2 absorption. Furthermore, two-dimensional (2D) […] heteronuclear single quantum coherence (HSQC) and heteronuclear multiple bond correlation (HMBC) nuclear magnetic resonance (NMR) analysis were also carried out on [Ch][Lys] before and after CO2 absorption.

For data set [3], the system named is CTec2+HTec2 (9:1, v/v) commercial enzyme mixtures. The data set is described as follows: Compatibility of ILs with commercial enzyme mixtures (enzymatic hydrolysis of microcrystalline cellulose). The settings on record: pH adjusted to 4.5 with hydrochloric acid. The format is biochemical. How it is done: as §1
For data set [4], the system named is Saccharomyces cerevisiae strain BY4741. The data set is described as follows: Toxicity screen of ionic liquids on Saccharomyces cerevisiae strain BY4741. The settings on record: 200 mM IL, SC medium containing 0.2% glucose, pH adjusted to 7 with hydrochloric acid if necessary. It is filed as cell-based. How it is done:
Both choline, the cation precursor and lysine, the anion precursor are essential nutrients for microbial growth, which are known to be non-toxic and biodegradable. In this study, we carried out toxicity screen of 15 typical ILs including [Ch][Lys], [Ch][OAc] and imidazolium based ILs, [[…]][OAc] on Saccharomyces cerevisiae strain BY4741 at different IL concentrations of 25 and 200 mM (FIG. 2A-2B) in SC medium containing 0.2% glucose with the pH of the IL solution adjusted to 7 using hydrochloric acid if necessary. It aims to test whether the IL, [Ch][Lys] is compatible to commercial enzymes and biofuel producing microbes. As shown in FIG. 2A-2D, the microbial growth was completely jeopardized in a concentration of 200 mM ( 4.3 wt %) for most of the ILs.

`Cl` [hydrochloric acid]: in data set [1], the “relative activities of enzymes on MCC” value is “outperforms the other acids”.

Consider `O=S(=O)(O)O` [sulfuric acid], for which, in data set [1], the “relative activities of enzymes on MCC” value is reported as “outperforms the other acids”.

On to `O=C(O)CC(O)(CC(=O)O)C(=O)O` [citric acid], for which the “relative activities of enzymes on MCC” value in data set [1] is recorded as “outperforms the other acids”.

For the compound `C[N+](C)(C)CCO.NCCCC[C@H](N)C(=O)[O-]` [[Ch][Lys], cholinium lysinate], the pH result in data set [2] (5 wt % [Ch][Lys]-water, 0.1 MPa CO2 pressure) is listed as “around 6.9”; in data set [2] (10 wt % [Ch][Lys]-water, 0.7 MPa CO2 pressure), 7.1; in data set [2] (20 wt % [Ch][Lys]-water, CO2 pressure around 2 MPa), 7.2; in data set [2] ([Ch][Lys] or aqueous [Ch][Lys] solution during and after pretreatment) it was 12-14; in data set [2] (all [Ch][Lys]-water solutions (5, 10, 20 wt %), CO2 pressure 0.1 MPa, room temperature) it was 7-9. In addition, the “relative activity of enzymes (sugar yield from hydrolysis of microcrystalline cellulose) vs no-IL control” value was approximately 70% in data set [3] (5% IL) and approximately 50% in data set [3] (10% IL). The microbial growth entry in data set [4] is recorded as “no retard of microbial growth”. Besides, the enzyme activity result in data set [1] (5% [Ch][Lys] solution without pH adjustment) is “very low”.
